Reference: US20090264355A1, “METHODS TO TREAT ALZHEIMER'S DISEASE OR OTHER DISORDERS MEDIATED BY AMYLOID-BETA ACCUMULATION IN A SUBJECT” (WASHINGTON UNIVERSITY IN ST. LOUIS, priority 2005, published 2009)

Assays:
Pgp [1] = biological target: T1, Pgp (Mus musculus, UniProt P21447); assay: ISF Aβ in vivo microdialysis after acute pharmacologic inhibition of Pgp; set-up: species or system APPsw mice; conditions: 80 mg/kg intravenous
T1 construct: from tissue; host or cells: brain (blood-brain barrier) of living 3 month old APPsw+/- (Tg2576) mice
Method: In vivo microdialysis to assess brain ISF Aβ1-x in the hippocampus of awake, freely moving 3 month old APPsw^+/− mice was performed exactly as described (Cirrito, J. R., et al. 2003. J. Neurosci. 23:8844-8853; DeMattos, R. B., et al. 2004. Neuron. 41:193-202). Aβ1-x represents all Aβ peptides beginning at amino acid 1 of the N-terminus with the C-terminus being variable but predominantly either ending at position 40 or 42. An initial 4-6 hour recovery period elapsed after guide implantation and probe insertion to allow for tissue recovery, followed by collection of microdialysis samples for 5 hours at one-hour intervals at a flow rate of 1.5 μl/min to establish basal level of ISF Aβ. […] Concentrations of ISF Aβ1-x for each mouse were expressed as the percentage of basal level for each mouse (mean of 5 hours prior to treatment).
Acute inhibition of Pgp activity was assessed using APPsw mice (also called Tg2576). […] Using in vivo microdialysis in awake, freely moving mice (Cirrito, J. R., et al. 2003. J. Neurosci. 23:8844-8853; DeMattos, R. B., et al. 2004. Neuron. 41:193-202), a basal concentration of ISF Aβ was determined over 5 hours. Mice were then treated with either vehicle or XR9576 and ISF Aβ levels were assessed for an additional 10 hours (FIG. 2A). […]

LRP1 = LRP1 expression in cerebral capillaries by Western blot after acute inhibition of Pgp; type: in vivo, APPsw mice; conditions: ten hours after treatment, 80 mg/kg intravenous
Method: Hippocampal tissue from 12 month old APPsw, Pgp-wild type and APPsw, Pgp-null littermates was homogenized in 150 mM NaCl, 50 mM Tris pH 7.4, 0.5% deoxycholic acid, 0.1% SDS, 1% Triton X-100, 2.5 mM EDTA, and protease inhibitors. Western blotting for MRP1, LRP1, and RAGE were performed using 3-8% NuPAGE Tris-Acetate gels (Invitrogen) with thirty micrograms of protein loaded per lane. Cerebral microvessels from 2-3 month old PGP-wildtype (FVB wild type) and Pgp-null mice were isolated as described (Zlokovic, B. V., et al. 1993. J. Biol. Chem. 268:8019-8025.). […] Bands were detected with Lumigen-TMA6 (Amersham Biosciences) and captured digitally using the Kodak ImageStation 440CF. The relative absorbance of each band was detected by densitometry and normalized to protein loaded in each lane. […]
Acute inhibition of Pgp activity was assessed using APPsw mice (also called Tg2576). […] Using in vivo microdialysis in awake, freely moving mice (Cirrito, J. R., et al. 2003. J. Neurosci. 23:8844-8853; DeMattos, R. B., et al. 2004. Neuron. 41:193-202), a basal concentration of ISF Aβ was determined over 5 hours. Mice were then treated with either vehicle or XR9576 and ISF Aβ levels were assessed for an additional 10 hours (FIG. 2A). […] Ten hours after treatment with either vehicle or XR9576, cerebral microvessels were also isolated and assessed for levels of LRP1 by Western blot.

Pgp [2] = assay: [99mTc]Sestamibi transport and biodistribution; type: in vivo, mice; conditions: for brain content of the tracer: five minutes after intravenous bolus injection (2 μCi)
Method: The radiopharmaceutical [^99mTc]Sestamibi (Bristol-Myers Squibb Co.) was prepared from a one-step commercial kit formulation by addition of [^99mTc]TcO4^− according to the manufacturer's recommendations (25). […] Data are expressed as percent injected dose per gram tissue [(μCi [^99mTc]Sestamibi in tissue) (μCi injected [^99mTc]Sestamibi)^−1(g tissue)^−1×100] and are reported as mean±SEM (n=3-4) or ±range (n=2).
APPsw^+/− mice were bred to mdr1a/b^−/− animals to produce littermate mice that were positive for the APPsw transgene and either Pgp-null (APPsw^+/−, mdr1a/b^−/−) or Pgp wild type (APPsw^+/−, mdr1a/b^+/+). […] Normally, [^99mTc]Sestamibi is readily transported out of the brain by Pgp.

Pgp [3] = assay: BBB transport: clearance of radiotracers from the brain after intracerebral microinjection; conditions: both groups (Pgp-wild type and Pgp-null); 30 minutes; co-injected with [125I]Aβ42
Method: Transport of human [^125I]Aβ40 or [^125I]Aβ42 across the BBB and the associated calculations were performed as described (DeMattos, R. B., et al. 2002. Science. 295:2264-2267; Zlokovic, B. V., et al. 2000. Nat. Med. 6:718-719.). Briefly, a guide cannula was implanted stereotaxically into the right caudate-putamen of anesthetized mice at coordinates 0.9 mm anterior to bregma, 1.9 mm lateral, and 2.9 mm below the dura. Animals were allowed to recover after surgery prior to radiotracer studies. […] Twelve nanomoles of [^14C]inulin and either [^125I]Aβ40 or [^125I]Aβ42 was co-injected in a volume of 0.5 μl over 5 minutes using an ultra micropump (World Precision Instruments). The specific activities of peptide were in the range of 80-120 μCi/μg. The percentage of radioactivity remaining in the brain after microinjection was determined as % recovery in brain=100×(Nb/Ni), where Nb is the radioactivity remaining in the brain at the end of the experiment and Ni is the radioactivity microinjected into brain ISF, i.e., the disintegrations per minute for [^14C]inulin and the counts per minute for tricholoracetic acid-precipitable [^125I]radioactivity (intact Aβ). The percentage of Aβ cleared through the BBB was calculated as [(1−Nb(Aβ)/Ni(Aβ))−(1−Nb(inulin)/Ni(inulin))]×100, using a standard time of 30 min. […]

T1 sequence (P21447 whole entry): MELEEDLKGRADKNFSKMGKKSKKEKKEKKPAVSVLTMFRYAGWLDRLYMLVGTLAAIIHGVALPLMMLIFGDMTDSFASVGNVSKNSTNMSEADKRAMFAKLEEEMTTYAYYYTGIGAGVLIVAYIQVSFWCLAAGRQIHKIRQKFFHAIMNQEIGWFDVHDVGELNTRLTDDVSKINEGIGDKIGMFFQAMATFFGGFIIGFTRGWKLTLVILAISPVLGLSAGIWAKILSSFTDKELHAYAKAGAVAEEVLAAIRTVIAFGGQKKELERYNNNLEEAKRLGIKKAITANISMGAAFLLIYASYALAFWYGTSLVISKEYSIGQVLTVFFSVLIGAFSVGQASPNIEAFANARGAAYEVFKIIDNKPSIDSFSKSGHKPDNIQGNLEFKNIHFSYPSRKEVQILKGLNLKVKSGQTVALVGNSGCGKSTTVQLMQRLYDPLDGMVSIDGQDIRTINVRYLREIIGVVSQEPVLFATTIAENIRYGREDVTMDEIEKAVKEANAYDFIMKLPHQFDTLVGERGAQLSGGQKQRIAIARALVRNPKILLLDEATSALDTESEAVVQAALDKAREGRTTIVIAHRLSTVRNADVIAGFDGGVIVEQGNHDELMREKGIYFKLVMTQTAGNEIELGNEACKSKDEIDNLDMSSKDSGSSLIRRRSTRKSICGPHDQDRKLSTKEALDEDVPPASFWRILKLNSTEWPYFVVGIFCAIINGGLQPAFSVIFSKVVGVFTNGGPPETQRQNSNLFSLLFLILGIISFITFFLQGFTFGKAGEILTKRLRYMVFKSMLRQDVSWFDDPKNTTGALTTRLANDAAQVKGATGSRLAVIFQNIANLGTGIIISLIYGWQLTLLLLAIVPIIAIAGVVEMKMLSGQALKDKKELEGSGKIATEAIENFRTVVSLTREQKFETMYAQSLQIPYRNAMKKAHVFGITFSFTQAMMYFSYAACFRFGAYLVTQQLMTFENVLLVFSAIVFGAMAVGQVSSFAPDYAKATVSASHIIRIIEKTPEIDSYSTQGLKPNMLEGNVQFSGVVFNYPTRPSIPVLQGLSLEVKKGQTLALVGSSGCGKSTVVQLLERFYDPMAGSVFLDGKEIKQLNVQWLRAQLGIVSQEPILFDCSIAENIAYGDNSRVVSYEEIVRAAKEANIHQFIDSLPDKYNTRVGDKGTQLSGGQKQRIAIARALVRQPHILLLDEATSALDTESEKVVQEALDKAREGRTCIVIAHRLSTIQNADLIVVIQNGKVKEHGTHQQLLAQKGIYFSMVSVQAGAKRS

For `COc1cc2c(cc1OC)CN(CCc1ccc(NC(=O)c3cc(OC)c(OC)cc3NC(=O)c3cnc4ccccc4c3)cc1)CC2` [XR9576], the “increase of ISF Aβ levels compared to vehicle treated mice” value (Pgp [1]; eight hours after treatment) was roughly 30%, the “ISF exchangeable Aβ1-x (eAβ1-x) levels, % of control-treated (vehicle-treated) mice” value (Pgp [1]; from eight hours after administration, hippocampus, 3 month old APPsw mice) was 127.7±3.4% and the “levels of LRP1 in cerebral vessels” value (LRP1) was “did not change”. For the same molecule, the “Pgp function at the BBB as determined with [99mTc]Sestamibi analysis” value (Pgp [2]; intravenous, 80 mg/kg, data not shown) was “inhibits Pgp function at the BBB”.

For inulin [[^14C]inulin], the “brain recovery (retained)” value (Pgp [3]) was “Approximately 85%”.

With `[C-]#[N+]CC(C)(C)OC.[C-]#[N+]CC(C)(C)OC.[C-]#[N+]CC(C)(C)OC.[C-]#[N+]CC(C)(C)OC.[C-]#[N+]CC(C)(C)OC.[C-]#[N+]CC(C)(C)OC.[Tc]` [[^99mTc]Sestamibi] the “increase in brain penetration in Pgp-null mice versus wild type” value (Pgp [2]; FVB strain, without APPsw transgene) was “approximately 3.5 fold”, the “brain content of the tracer” value (Pgp [2]; Pgp-null mice (FVB)) was 0.85±0.14 % ID/g and the “increase in brain penetration in Pgp-null animals compared with those expressing Pgp” value (Pgp [2]; animals expressing the APPsw+/- transgene) was 3.5 fold. For the same molecule, the “brain content of the tracer” value (Pgp [2]; wild type controls (FVB)) was 0.22±0.02 % injected dose (ID)/gram (g) and the “blood content of the tracer, difference between the two strains” value (Pgp [2]; wild type versus Pgp-null, five minutes post-injection) was “no difference”.
